Source: patent US11001586B2, “Alkyl pyrrolopyrimidine analogs and methods of making and using same” (The University of North Carolina at Chapel Hill, priority 2016, dated 2021)

Legend:
[1] = molecular target: Tyro3 tyrosine kinase (Homo sapiens (Human), UniProt Q06418); experiment: Evaluation of activity against Tyro3 tyrosine kinase; format: biochemical
[2] = molecular target: Mer tyrosine kinase (Homo sapiens (Human), UniProt Q12866); experiment: Evaluation of activity against Mer tyrosine kinase; format: biochemical
Chain of Mer tyrosine kinase (Q12866 21-999): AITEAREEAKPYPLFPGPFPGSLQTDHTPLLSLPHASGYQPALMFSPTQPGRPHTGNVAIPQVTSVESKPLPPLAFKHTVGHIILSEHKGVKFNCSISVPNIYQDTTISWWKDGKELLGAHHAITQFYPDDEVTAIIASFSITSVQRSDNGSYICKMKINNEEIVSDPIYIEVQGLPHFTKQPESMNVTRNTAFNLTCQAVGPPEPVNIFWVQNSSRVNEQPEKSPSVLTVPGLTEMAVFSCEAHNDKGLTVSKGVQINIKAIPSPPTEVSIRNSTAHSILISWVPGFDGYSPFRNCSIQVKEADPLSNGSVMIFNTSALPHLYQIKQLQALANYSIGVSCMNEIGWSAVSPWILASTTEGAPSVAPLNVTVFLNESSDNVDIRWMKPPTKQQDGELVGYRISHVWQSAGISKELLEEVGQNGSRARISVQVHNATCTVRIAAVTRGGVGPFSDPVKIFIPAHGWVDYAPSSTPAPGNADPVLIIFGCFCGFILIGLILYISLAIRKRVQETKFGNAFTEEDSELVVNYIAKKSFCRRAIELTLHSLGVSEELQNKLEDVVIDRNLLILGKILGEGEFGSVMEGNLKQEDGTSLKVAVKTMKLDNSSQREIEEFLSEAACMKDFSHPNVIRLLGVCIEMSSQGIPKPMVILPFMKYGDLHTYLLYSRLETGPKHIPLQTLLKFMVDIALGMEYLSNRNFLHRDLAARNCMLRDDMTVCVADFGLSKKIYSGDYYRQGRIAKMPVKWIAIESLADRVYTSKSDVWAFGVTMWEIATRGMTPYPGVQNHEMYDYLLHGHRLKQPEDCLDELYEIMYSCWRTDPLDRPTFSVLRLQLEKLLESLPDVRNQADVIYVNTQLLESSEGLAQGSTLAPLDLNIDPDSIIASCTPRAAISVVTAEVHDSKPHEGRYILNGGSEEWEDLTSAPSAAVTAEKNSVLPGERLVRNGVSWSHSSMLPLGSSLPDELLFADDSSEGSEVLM

Chain of Tyro3 tyrosine kinase (Q06418 41-890): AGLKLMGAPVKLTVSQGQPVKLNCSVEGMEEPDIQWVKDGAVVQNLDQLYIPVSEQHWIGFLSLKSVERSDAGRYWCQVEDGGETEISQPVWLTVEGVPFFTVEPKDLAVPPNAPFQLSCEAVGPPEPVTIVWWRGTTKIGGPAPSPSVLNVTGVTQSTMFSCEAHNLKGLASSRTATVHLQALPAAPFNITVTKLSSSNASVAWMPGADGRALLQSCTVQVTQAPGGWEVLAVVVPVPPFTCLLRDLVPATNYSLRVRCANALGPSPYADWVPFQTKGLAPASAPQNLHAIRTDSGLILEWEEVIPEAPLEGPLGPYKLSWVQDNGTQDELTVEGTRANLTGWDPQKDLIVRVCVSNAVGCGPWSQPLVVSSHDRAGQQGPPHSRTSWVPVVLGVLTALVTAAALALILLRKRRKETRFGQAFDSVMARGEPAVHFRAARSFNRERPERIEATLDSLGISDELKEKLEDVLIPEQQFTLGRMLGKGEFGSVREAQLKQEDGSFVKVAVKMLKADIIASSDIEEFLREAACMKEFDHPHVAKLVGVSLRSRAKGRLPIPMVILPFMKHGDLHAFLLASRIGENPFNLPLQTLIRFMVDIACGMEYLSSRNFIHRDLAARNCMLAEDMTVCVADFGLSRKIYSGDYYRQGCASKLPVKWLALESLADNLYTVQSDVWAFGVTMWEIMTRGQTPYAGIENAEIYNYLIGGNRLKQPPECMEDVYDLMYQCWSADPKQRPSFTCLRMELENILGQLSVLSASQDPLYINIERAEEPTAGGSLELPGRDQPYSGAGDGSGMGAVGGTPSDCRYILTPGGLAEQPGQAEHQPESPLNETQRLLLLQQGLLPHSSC

Row | Structure (SMILES) | IC50 [1] | IC50 [2]
1 | CCC[C@H](C)Nc1ncc2c(C3CCN(C(=O)C4CCN(C)C4)CC3)cn([C@H]3CC[C@H](O)CC3)c2n1 (stereo partly drawn) [compound 18, (4-(7-((1R,4S)-4-hydroxycyclohexyl)-2-(((S)-pentan-2-yl)amino)-7H-pyrrolo[2,3-d]pyrimidin-5-yl)piperidin-1-yl)(1-methylpyrrolidin-3-yl)methanone] | 10 to 100 nM | < 10 nM
2 | CCC[C@H](C)Nc1ncc2c(C3CCN(C(=O)[C@@H]4CCCCN4)CC3)cn([C@H]3CC[C@H](O)CC3)c2n1 [compound 19, (4-(7-((1R,4S)-4-hydroxycyclohexyl)-2-(((S)-pentan-2-yl)amino)-7H-pyrrolo[2,3-d]pyrimidin-5-yl)piperidin-1-yl)((S)-piperidin-2-yl)methanone] | 10 to 100 nM | < 10 nM
3 | CCC[C@H](C)Nc1ncc2c(C3CCN(C(=O)[C@H]4CCCCN4)CC3)cn([C@H]3CC[C@H](O)CC3)c2n1 [compound 20, (4-(7-((1R,4S)-4-hydroxycyclohexyl)-2-(((S)-pentan-2-yl)amino)-7H-pyrrolo[2,3-d]pyrimidin-5-yl)piperidin-1-yl)((R)-piperidin-2-yl)methanone] | 100 to 1000 nM | < 10 nM
4 | CCC[C@H](C)Nc1ncc2c(C3CCN(C(=O)[C@@H]4CCCNC4)CC3)cn([C@H]3CC[C@H](O)CC3)c2n1 [compound 23, (4-(7-((1R,4S)-4-hydroxycyclohexyl)-2-(((S)-pentan-2-yl)amino)-7H-pyrrolo[2,3-d]pyrimidin-5-yl)piperidin-1-yl)((R)-piperidin-3-yl)methanone] | 10 to 100 nM | < 10 nM
5 | CCC[C@H](C)Nc1ncc2c(C3CCN(C(=O)[C@H]4CCCNC4)CC3)cn([C@H]3CC[C@H](O)CC3)c2n1 [compound 24, (4-(7-((1R,4S)-4-hydroxycyclohexyl)-2-(((S)-pentan-2-yl)amino)-7H-pyrrolo[2,3-d]pyrimidin-5-yl)piperidin-1-yl)((S)-piperidin-3-yl)methanone] | 10 to 100 nM | < 10 nM
6 | CCC[C@H](C)Nc1ncc2c(C3CCN(C(=O)c4ccccc4)CC3)cn([C@H]3CC[C@H](O)CC3)c2n1 [compound 30, (4-(7-((1R,4S)-4-hydroxycyclohexyl)-2-(((S)-pentan-2-yl)amino)-7H-pyrrolo[2,3-d]pyrimidin-5-yl)piperidin-1-yl)(phenyl)methanone] | 10 to 100 nM | < 10 nM
7 | CCC[C@H](C)Nc1ncc2c(C3CCN(C(=O)c4ccc(OC)cc4)CC3)cn([C@H]3CC[C@H](O)CC3)c2n1 [compound 31, (4-(7-((1R,4S)-4-hydroxycyclohexyl)-2-(((S)-pentan-2-yl)amino)-7H-pyrrolo[2,3-d]pyrimidin-5-yl)piperidin-1-yl)(4-methoxyphenyl)methanone] | 100 to 1000 nM | < 10 nM
8 | CCC[C@H](C)Nc1ncc2c(C3CCN(C(=O)c4cccc(OC)c4)CC3)cn([C@H]3CC[C@H](O)CC3)c2n1 [compound 32, (4-(7-((1R,4S)-4-hydroxycyclohexyl)-2-(((S)-pentan-2-yl)amino)-7H-pyrrolo[2,3-d]pyrimidin-5-yl)piperidin-1-yl)(3-methoxyphenyl)methanone] | 100 to 1000 nM | < 10 nM
9 | CCC[C@H](C)Nc1ncc2c(C3CCN(C(=O)c4ccccc4OC)CC3)cn([C@H]3CC[C@H](O)CC3)c2n1 [compound 33, (4-(7-((1R,4S)-4-hydroxycyclohexyl)-2-(((S)-pentan-2-yl)amino)-7H-pyrrolo[2,3-d]pyrimidin-5-yl)piperidin-1-yl)(2-methoxyphenyl)methanone] | 100 to 1000 nM | < 10 nM
10 | CCC[C@H](C)Nc1ncc2c(C3CCN(C(=O)c4cc(C)nc(C)c4)CC3)cn([C@H]3CC[C@H](O)CC3)c2n1 [compound 34, (2,6-dimethylpyridin-4-yl)(4-(7-((1R,4S)-4-hydroxycyclohexyl)-2-(((S)-pentan-2-yl)amino)-7H-pyrrolo[2,3-d]pyrimidin-5-yl)piperidin-1-yl)methanone] | 10 to 100 nM | < 10 nM
